Consider two compounds from patent US6566086B1, “Diagnostic kit for detecting creatine levels” (FAL Diagnostics, priority 2000, dated 2003).

A short description of test [1]: 1H NMR detection of the interaction of substance 42 with creatine. Format: binding. Particulars: CD3OD solution; creatine added to the test solution. The protocol:
The ability of substance 42 to detect creatine was evaluated by ^1H NMR spectroscopy. […] (Bell, T. W. et al. 36th National Organic Symposium, U. of Wisconsin, Madison, Wis., Jun. 13, 1999-Jun. 17, 1999). [drawing 32] [drawing 33]

Test [2] relates to animal models of Huntington's disease. To be noted: oral supplementation; cited from earlier work.

With `O=C(O)c1ccc2c(n1)-c1nc3nc4c(cc3cc1CC2)CCc1ccc(C(=O)O)nc1-4` [Substance 42], the “ability to detect creatine (interaction with creatine by 1H NMR)” value in test [1] is “interaction of creatine with substance 42 was detected”.
Consider `N=C1NCCN1CC(=O)O` [cyclocreatine, 1-carboxymethyl-2-iminoimidazolidine], for which the “protection from malonate lesions” value in test [2] is given as “protect the animals from malonate lesions”.
